Data taken from article PMC5540273, “Progress towards a public chemogenomic set for protein kinases and a call for contributions” (PLoS ONE, 2017).

Tests used:
Test in all cases: KINOMEscan competition binding
AXL = biological target: T1, AXL (Homo sapiens, UniProt P30530); conditions: read-out: %Inh AXL
T1 sequence (P30530 26-894): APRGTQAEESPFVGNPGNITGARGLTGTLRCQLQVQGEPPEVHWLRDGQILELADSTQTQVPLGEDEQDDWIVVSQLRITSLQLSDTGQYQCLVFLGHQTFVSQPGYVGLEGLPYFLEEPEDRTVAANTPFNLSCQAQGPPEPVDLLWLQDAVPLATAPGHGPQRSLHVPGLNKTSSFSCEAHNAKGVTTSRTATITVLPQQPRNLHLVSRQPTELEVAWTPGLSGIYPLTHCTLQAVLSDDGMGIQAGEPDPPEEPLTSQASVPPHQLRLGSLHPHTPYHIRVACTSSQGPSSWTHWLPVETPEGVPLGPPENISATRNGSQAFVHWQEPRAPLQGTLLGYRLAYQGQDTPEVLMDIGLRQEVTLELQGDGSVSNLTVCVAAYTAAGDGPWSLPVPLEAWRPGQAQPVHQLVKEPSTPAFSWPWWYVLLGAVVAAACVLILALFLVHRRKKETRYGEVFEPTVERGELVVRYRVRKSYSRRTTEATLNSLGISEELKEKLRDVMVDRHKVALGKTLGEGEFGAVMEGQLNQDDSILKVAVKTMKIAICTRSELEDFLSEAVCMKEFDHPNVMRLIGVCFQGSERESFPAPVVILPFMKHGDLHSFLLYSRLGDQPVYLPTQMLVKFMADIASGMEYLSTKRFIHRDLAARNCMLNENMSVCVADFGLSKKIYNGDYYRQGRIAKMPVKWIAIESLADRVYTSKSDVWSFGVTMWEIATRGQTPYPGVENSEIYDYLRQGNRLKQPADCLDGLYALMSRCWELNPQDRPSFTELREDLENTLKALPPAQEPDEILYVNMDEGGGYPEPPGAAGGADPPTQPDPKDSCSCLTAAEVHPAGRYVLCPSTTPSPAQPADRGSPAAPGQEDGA

GAK = biological target: T2, GAK (Homo sapiens, UniProt O14976); conditions: read-out: %Inh GAK
T2 sequence (O14976 1-1311): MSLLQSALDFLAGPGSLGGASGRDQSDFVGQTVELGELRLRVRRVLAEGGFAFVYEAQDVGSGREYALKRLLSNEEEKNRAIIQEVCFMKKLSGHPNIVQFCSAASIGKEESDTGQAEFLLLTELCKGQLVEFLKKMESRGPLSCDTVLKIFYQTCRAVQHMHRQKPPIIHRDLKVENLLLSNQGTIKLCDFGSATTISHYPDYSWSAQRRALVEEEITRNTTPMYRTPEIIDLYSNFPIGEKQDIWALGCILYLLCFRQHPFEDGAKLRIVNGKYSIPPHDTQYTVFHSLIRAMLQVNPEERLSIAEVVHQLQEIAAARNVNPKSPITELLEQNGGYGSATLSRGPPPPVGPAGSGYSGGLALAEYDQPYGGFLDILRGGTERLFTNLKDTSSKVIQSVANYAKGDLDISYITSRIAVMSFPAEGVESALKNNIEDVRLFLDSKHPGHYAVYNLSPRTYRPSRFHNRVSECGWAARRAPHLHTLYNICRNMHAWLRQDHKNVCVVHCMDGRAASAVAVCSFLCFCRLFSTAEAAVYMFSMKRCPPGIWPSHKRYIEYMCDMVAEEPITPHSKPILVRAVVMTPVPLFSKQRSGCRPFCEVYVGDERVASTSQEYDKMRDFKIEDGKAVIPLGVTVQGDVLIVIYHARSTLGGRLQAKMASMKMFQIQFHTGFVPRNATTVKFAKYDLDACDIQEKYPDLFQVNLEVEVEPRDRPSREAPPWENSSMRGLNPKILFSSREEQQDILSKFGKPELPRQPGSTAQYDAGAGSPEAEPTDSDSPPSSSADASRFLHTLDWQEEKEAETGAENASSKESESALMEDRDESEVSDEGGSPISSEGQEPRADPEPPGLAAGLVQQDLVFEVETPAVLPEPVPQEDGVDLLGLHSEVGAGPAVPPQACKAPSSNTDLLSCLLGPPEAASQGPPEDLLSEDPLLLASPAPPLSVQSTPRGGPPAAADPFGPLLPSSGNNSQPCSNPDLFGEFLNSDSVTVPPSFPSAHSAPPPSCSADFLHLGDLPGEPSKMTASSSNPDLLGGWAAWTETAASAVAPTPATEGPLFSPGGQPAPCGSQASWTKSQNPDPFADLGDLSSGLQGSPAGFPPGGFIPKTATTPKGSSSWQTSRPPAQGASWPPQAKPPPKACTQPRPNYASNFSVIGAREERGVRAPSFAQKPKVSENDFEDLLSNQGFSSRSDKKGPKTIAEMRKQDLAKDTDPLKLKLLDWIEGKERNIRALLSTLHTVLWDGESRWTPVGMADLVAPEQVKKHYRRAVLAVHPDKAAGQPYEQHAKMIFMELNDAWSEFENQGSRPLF

IKK-alpha = biological target: T3, IKK-alpha (Homo sapiens, UniProt O15111); conditions: read-out: %Inh IKK-alpha
T3 sequence (O15111 1-745): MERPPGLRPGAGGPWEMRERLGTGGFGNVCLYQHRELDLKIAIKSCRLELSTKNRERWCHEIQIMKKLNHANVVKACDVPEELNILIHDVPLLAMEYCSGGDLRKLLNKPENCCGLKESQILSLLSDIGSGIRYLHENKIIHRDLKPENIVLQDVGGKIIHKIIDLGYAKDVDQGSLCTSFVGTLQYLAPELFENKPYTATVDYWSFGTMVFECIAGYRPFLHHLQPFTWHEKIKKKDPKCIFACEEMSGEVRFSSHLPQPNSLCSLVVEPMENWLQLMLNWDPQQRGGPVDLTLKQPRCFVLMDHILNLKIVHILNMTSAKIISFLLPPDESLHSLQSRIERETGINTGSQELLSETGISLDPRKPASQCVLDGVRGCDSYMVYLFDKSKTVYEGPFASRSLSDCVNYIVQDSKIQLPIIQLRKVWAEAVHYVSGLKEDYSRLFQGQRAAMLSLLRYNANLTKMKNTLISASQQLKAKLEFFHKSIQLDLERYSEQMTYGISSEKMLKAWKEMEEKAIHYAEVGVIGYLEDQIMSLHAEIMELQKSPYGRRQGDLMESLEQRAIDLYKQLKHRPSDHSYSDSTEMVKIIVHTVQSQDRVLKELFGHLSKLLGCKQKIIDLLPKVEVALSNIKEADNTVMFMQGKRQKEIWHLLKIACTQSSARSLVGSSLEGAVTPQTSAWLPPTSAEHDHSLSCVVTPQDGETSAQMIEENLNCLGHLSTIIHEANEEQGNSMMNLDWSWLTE

Work on COc1cccc(OC)c1C(=O)Nc1cccc(-c2nn3ccccc3c2-c2ccnc(Nc3cccc(F)c3)n2)c1 [UNC10225310A] yielded an inhibition at 1 µM (AXL) of 30%, an inhibition at 1 µM (GAK) of 6% and an inhibition at 1 µM (IKK-alpha) of 0%.

Cc1ccc(NC(=O)Nc2cccc(C(F)(F)F)c2)cc1 [UNC10225187A] gave an inhibition at 1 µM (AXL) of 0%, an inhibition at 1 µM (GAK) of 0% and an inhibition at 1 µM (IKK-alpha) of 0%.

With O=c1cc(N2CCOCC2)nc2n(Cc3cccc(Cl)c3Cl)c(C3CC3)nn12 [UNC10225469A] the inhibition at 1 µM (AXL) was 3%, the inhibition at 1 µM (GAK) was 11% and the inhibition at 1 µM (IKK-alpha) was 0%.

With CS(=O)(=O)Cc1ccc(Nc2nccc(-c3c(-c4cccc(NC(=O)C5CCCCC5)c4)nn4ncccc34)n2)cc1 [UNC10225159A] the inhibition at 1 µM (AXL) was 18%, the inhibition at 1 µM (GAK) was 14% and the inhibition at 1 µM (IKK-alpha) was 0%.

With Cn1cc(-c2cnc(N)c3c(-c4ccc5c(c4)CCN5C(=O)Cc4ccccc4)csc23)cn1 [UNC10225012A] the inhibition at 1 µM (AXL) was 95.9%, the inhibition at 1 µM (GAK) was 11% and the inhibition at 1 µM (IKK-alpha) was 0%.
